Values joined by “and” are separate entries in the source; they are usually repeats but may differ in a detail not shown here. Identical values can stand only once.
Assays:
[1] = biological target: T1, PAR2 (F2RL1) (Homo sapiens, UniProt P55085); assay: β-arrestin recruitment, DiscoverX profiling service, PAR2; assay type: cell-based; settings: for Max Response: in % (unit assumed)
T1 sequence (P55085 26-397): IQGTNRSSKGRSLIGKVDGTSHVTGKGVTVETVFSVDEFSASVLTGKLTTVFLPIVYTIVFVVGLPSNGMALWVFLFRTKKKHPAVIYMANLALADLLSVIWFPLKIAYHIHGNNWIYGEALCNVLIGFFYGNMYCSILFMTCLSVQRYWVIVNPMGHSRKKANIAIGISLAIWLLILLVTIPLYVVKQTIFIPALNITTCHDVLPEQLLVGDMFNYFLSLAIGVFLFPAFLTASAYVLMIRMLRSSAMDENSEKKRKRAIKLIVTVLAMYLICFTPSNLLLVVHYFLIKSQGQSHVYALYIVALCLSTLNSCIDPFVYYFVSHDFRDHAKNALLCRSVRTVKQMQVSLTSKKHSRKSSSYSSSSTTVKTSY

[2] = biological target: T2, hPAR2 (Homo sapiens, UniProt P55085); assay: Ca^2+ flux assay, inhibition of tryptase activation in 1321N1-hPAR2 cells; assay type: cell-based; settings: 1 µM Vorapaxar
T2 sequence (P55085 26-397): T1 sequence (P55085 26-397)
Procedure: For evaluation of Ca^2+ mobilisation, 1321N1-hPAR2 cells were seeded in 384-well CellBIND plates (Corning) at 4000 cells per well in DMEM containing 10% FBS and incubated for 18–24 hours at 37 °C, 5% CO2 and 95% humidity. Cells were loaded with Fluo-8 NW calcium dye (AAT Bioquest) for 30 min at 37 °C before compounds in Hank’s balanced salt solution (HBSS, ThermoFisher Scientific) with 20 mM HEPES (ThermoFisher Scientific), 0.1% bovine serum albumin (BSA, Sigma) and 0.5% DMSO were added and simultaneously evaluated for changes in intracellular [Ca^2+] using FLIPR TETRA (Molecular Devices) to detect agonism. For each concentration, the difference between the maximum peak Ca^2+ response and baseline response is reported. […] Inhibition of Ca^2+ release on rat PAR2 was measured in the same way using 10 000 KNRK cells per well seeded in poly-D-lysine coated 384-well plates (Greiner), 30 min preincubation with the compound before activation of PAR2 with EC80 of SLIGRL-NH2 (120 µM) and real-time detection of Ca^2+. […] Intracellular [Ca^2+] flux was measured using FLIPR TETRA (Molecular Devices) and the difference between the maximum peak Ca^2+ response and baseline response is reported.

[3] = system: mast cells; assay: Immunohistochemistry, tryptase-positive (AA1+ve) intact mast cells in rat paw; assay type: in vivo; settings: for AA +ve cells (% max): 2f-induced rat paw oedema, individual animals (Figure 5c); for decrease of tryptase-positive mast cells by 2f-LIGRLO-NH2: pre-treatment, 30 min
Procedure: (§1) Tissues were then embedded with Optimal Cutting Temperature compound (OCT, Sakura Finetek, USA) and stored at −80 °C before making cryo-sections for histological analysis. Frozen sections (5 µm) were made using a cryostat-microtome (Leica Biosystems, Germany). […] Slides were then dehydrated and mounted in DPX mountant (Sigma-Aldrich, USA). For immunohistochemistry, slides were briefly rinsed with PBS to remove OCT. Except for tryptase staining, antigen retrieval was performed by incubating slides in citrate buffer (0.01 M, pH 6) at 95 °C for 20 min. They were then cooled down briefly and incubated with blocking medium (PBS, 0.1% Triton X-100, 10% horse serum) for 1 h at room temperature in a humidity chamber. Samples were incubated with primary antibody medium (PBS, 0.1% Triton X-100, 4% horse serum; 1:100 primary antibody including – histamine, neutrophil elastase or ED1 antibodies) overnight at 4 °C. The next day, samples were washed with PBS and incubated with the secondary antibody medium (PBS, 0.1% Triton X-100, 4% horse serum, detection antibody 1:200) for 2 h at room temperature. For tryptase staining, slides were incubated with primary antibody medium (as above with tryptase antibody at 1:100 dilution) for 4 h, then the secondary antibody medium for 2 h. Finally, slides were dried, counterstained with DAPI (Invitrogen, Australia), and sealed with clear nail polish. Primary antibodies for tryptase (AA1, ab2378, Abcam, Australia), histamine (H7403, Sigma-Aldrich, USA), neutrophil elastase (ab21595, Abcam, Australia) and ED1 (ab31630, Abcam, Australia) were purchased from commercial sources. Secondary detection antibody was purchased from Abcam, Australia.

[4] = system: mast cells; assay: Mast cell staining (toluidine blue), activated/degranulated mast cells in rat paw; assay type: in vivo; set-up: Active mast cells (%): concentration or dose not given beside the values; settings: for Active mast cells (%): 2f-induced rat paw oedema, individual animals (Figure 5b); for percentage activated/degranulated mast cells in paw induced by 2f-LIGRLO-NH2: pre-treatment, 30 min
Procedure: as §1

[5] = biological target: T3, beta-tryptase (uniprot P20231) (Homo sapiens, UniProt P20231); assay: Tryptase enzyme activity assay; assay type: biochemical; settings: 10 µM, n=1
T3 construct: made in house; host or cells: Pichia pastoris
Procedure: Tryptase Enzyme Activity Assay. The tryptase assay was carried out using beta-tryptase (uniprot P20231) produced in Pichia pastoris and using Tos-Gly-Pro-Lys-pNA as substrate (25 mM stock in ethanol) in 100 mM Tris pH 8.0, 100 mM NaCl, 10% glycerol, 0.5 mg mL-1 BSA, 0.1% DDM. Substrate (250 µM) was pre-incubated with test compound (10 µM) in assay buffer (200 ul) in clear bottom 96 well Greiner plates at room temperature. The re action was started by the addition of tryptase to a final concentration of 4.7 nM. Co nversion was recorded in a plate reader by monitoring the increase of absorption at λ = 405 nm over time. Activity was determined by linear fit of initial rate.

T3 sequence (P20231 31-275): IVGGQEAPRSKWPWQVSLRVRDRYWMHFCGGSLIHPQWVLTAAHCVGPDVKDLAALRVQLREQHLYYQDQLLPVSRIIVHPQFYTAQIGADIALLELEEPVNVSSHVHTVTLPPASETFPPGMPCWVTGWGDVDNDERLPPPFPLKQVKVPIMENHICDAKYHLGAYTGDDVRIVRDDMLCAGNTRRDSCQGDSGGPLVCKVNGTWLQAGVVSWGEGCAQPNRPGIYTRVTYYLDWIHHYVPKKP

CNC(=O)[C@H]1CC[C@@H](NC(=O)[C@H](CC2CCCCC2)NC(=O)c2cn(Cc3ccccc3)nn2)c2ccccc21 [AZ2429]
Curve Bottom ([1]; Agonist format): -2 | Curve Top ([1]; Agonist format): 103.3 | Hill ([1]; Agonist format): 1.29 | Max Response ([1]; Agonist format): 104.3 | EC50 ([1]; Agonist format, read-out: RC50 (EC50)): 0.025 µM | Max Response ([1]; Antagonist format): 4.5 | IC50 ([1]; Antagonist format, read-out: RC50 (IC50)): > 50 µM

C[C@@H](C1CCCCC1)n1c(-c2cc3c(cc2Br)OCO3)nc2cc(C(=O)Nc3ccncc3)ccc21 [AZ2623]
inhibition of tryptase-induced Ca^2+ response [2]: only partial inhibition at low

C[C@@H](C1CCCCC1)n1c(-c2cc3c(cc2Br)OCO3)nc2cc(C(=O)Nc3ccc(C#N)cc3)ccc21 [AZ3451]
AA +ve cells (% max) [3]: 91.7692 % max and 45.8846 % max and 58.1835 % max and 66.6982 % max | decrease of tryptase-positive mast cells by 2f-LIGRLO-NH2 [3]: partly blocked | Active mast cells (%) [4]: 40% and 57.0833% and 59.9284% and 37.5635% and 18.0263% | percentage activated/degranulated mast cells in paw induced by 2f-LIGRLO-NH2 [4]: inhibited | inhibition of tryptase activity [5]: no | inhibition of tryptase-induced Ca^2+ response [2]: only partial inhibition at low

CCCc1cc(F)ccc1C(O)c1ncc[nH]1 (stereo not shown) [AZ8838]
AA +ve cells (% max) [3]: 70.0073 % max and 71.1692 % max and 108.061 % max and 60.4212 % max and 59.2593 % max | decrease of tryptase-positive mast cells by 2f-LIGRLO-NH2 [3]: partly blocked | Active mast cells (%) [4]: 57.5% and 42.6997% and 37.7451% and 42.5373% and 50% | percentage activated/degranulated mast cells in paw induced by 2f-LIGRLO-NH2 [4]: inhibited | inhibition of tryptase activity [5]: no
